The record followed here is patent US4273775A, “Hydantoin derivatives, anti-diabetic compositions thereof, and method of use thereof” (Pfizer Inc., priority 1980, dated 1981).

The subject of assay [1] is sorbitol accumulation in the sciatic nerve of streptozotocinized rats. Briefly: inhibition of sorbitol accumulation in the sciatic nerve of streptozotocinized (diabetic) rats. In kind it is in vivo. Particulars: measured 27 hours after induction of diabetes, vs untreated. As to the method:
The activity of the compounds of the present invention, as agents for the control of chronic diabetic complications, is determined by their ability to successfully pass one or more of the following standard biological and/or pharmacological tests, viz., (1) measuring their ability to inhibit the enzyme activity of isolated aldose reductase; (2) measuring their ability to reduce or inhibit sorbitol accumulation in the sciatic nerve of acutely streptozotocinized (i.e., diabetic) rats; (3) measuring their ability to reverse already-elevated sorbitol levels in the sciatic nerve and lens of chronic streptozotocin-induced diabetic rats; (4) measuring their ability to prevent or inhibit galactitol formation in the lens of acutely galactosemic rats, and (5) measuring their ability to delay cataract formation and reduce the severity of lens opacities in chronic galactosemic rats. The following tetrahydroquinoline-derived spiro-hydantoin compounds of Examples 1 and 3-4, respectively, were tested for their ability to reduce or inhibit sorbitol accumulation in the sciatic nerve of streptozotocinized (i.e., diabetic) rats by the procedure essentially described in U.S. Pat. No. 3,821,383. In the present study, the amount of sorbitol accumulation in the sciatic nerves was measured 27 hours after induction of diabetes. The compounds were administered orally at the dose levels indicated at 4, 8 and 24 hours following the administration of streptozotocin. The results obtained in this manner are presented below in terms of percent inhibition (%) afforded by the test compound as compared to the case where no compound was administered (i.e., the untreated animal where sorbitol levels normally rise from approximately […]. tissue to as high as 400 mM/g. tissue in the 27-hour test period): […]

In assay [2] the test system is sorbitol levels in diabetic rats. The experiment in a line: control (inhibition) of the formation of sorbitol levels in diabetic rats, oral. The class given is in vivo. Particulars: 5.0 mg./kg. to 25 mg./kg. An excerpt: As previously indicated, the tetrahydroquinoline-derived spiro-hydantoin compounds of this invention are all readily adapted to therapeutic use as aldose reductase inhibitors for the control of chronic diabetic complications, in view of their ability to reduce lens sorbitol levels in diabetic subjects to a statistically significant degree. […] The other compounds of this invention also cause similar results. Furthermore, all the herein described compounds of this invention can be administered by either the oral or parenteral routes of administration, for the present purposes at hand, without causing any significant untoward pharmacological side reactions to occur in the subject to whom they are so administered. In general, these compounds are ordinarily administered in dosages ranging from about 0.25 mg. to about 25 mg. per kg. of body weight per day, although variations will necessarily occur depending upon the weight and condition of the subject being treated and the particular route of administration chosen.

Where [3] appears, read: 5.0 mg./kg. orally at 4, 8 and 24 hours after streptozotocin.

Consider `O=C1NC(=O)C2(CCNc3ccc(Cl)cc32)N1` (stereo not shown) [Product of Example 4, 6'-chloro-1',2',3',4'-tetrahydro-spiro-[imidazolidine-4,4'-quinoline]-2,5-dione], for which the “Percent Inhibition (%) of sorbitol accumulation in sciatic nerve” value (“Percent Inhibition (%)” for short) in assay [1] (10 mg./kg. orally at 4, 8 and 24 hours after streptozotocin) is given as 80%. Also, the “control (i.e., inhibit) the formation of sorbitol levels in diabetic rats” value in assay [2] is recorded as “consistently control (i.e., inhibit) the formation of sorbitol levels in diabetic rats to a significantly high degree”.

As to `CN1CCC2(NC(=O)NC2=O)c2ccccc21.Cl` (stereo not shown) [Product of Example 1, 1'-methyl-1',2',3',4'-tetrahydro-spiro-[imidazolidine-4,4'-quinoline]-2,5-dione hydrochloride], in assay [1] (setting [3]), the “Percent Inhibition (%)” value was 19%.

`O=C1NC(=O)C2(CCNc3cc(Cl)ccc32)N1` (stereo not shown) [Product of Example 3, 7'-chloro-1',2',3',4'-tetrahydro-spiro-[imidazolidine-4,4'-quinoline]-2,5-dione]: the “Percent Inhibition (%)” value in assay [1] (setting [3]) was determined as 23%.
